The text below walks through data of ChEMBL document CHEMBL2380203, “Structure-activity relationship of cytochrome bc1 reductase inhibitor broad spectrum antifungal ilicicolin H” (Bioorg Med Chem Lett, 2013).

For test [1], the system named is Candida albicans. The experiment in a line: Antifungal activity against Candida albicans MY1055 assessed as growth inhibition after 24 hrs by liquid microdilution assay in presence of 10% mouse plasma. It counts as functional.
The nature of test [2]: Inhibition of Candida albicans MY1055 NADH:cytochrome bc1 reductase in presence of 40% mouse plasma. It counts as cell-free.
The test system of test [3] is Candida albicans. The experiment in a line: Ratio of IC50 for Candida albicans MY1055 NADH:cytochrome bc1 reductase in presence of 40% mouse plasma to IC50 for Candida albicans MY1055 NADH:cytochrome bc1 reductase in absence of mouse plasma.
Test [4] in a line: Inhibition of rat liver NADH:cytochrome bc1 reductase.
Test [5] is described as follows: Inhibition of Candida albicans MY1055 NADH:cytochrome bc1 reductase.
Test [6] relates to Candida albicans. The experiment in a line: Antifungal activity against Candida albicans MY1055 assessed as growth inhibition after 24 hrs by liquid microdilution assay. It counts as functional. The settings on record: MY1055, 24 h.
In test [7] the test system is Candida albicans. The experiment in a line: Antifungal activity against Candida albicans MY1055 assessed as growth inhibition after 24 hrs by liquid microdilution assay in presence of 10% mouse plasma.
Test [8] relates to Candida albicans. The test can be described thus: Ratio of MIC for Candida albicans MY1055 in presence of 10% mouse plasma to MIC for Candida albicans MY1055 in absence of mouse plasma. The test is classed as functional.
Test [9] can be described thus: Selectivity ratio of IC50 for Candida albicans MY1055 NADH:cytochrome bc1 reductase to IC50 for rat liver NADH:cytochrome bc1 reductase.

In brackets after ≈: the same amount, converted by molar mass.

For the molecule `CC1=C[C@@H](C(=O)c2c(O)c(-c3ccc(O)cc3)c[nH]c2=O)[C@H]([C@@H]2OC2C)[C@H]2C[C@@H](C)CC[C@H]12` (stereo not given in full), the MIC with Candida albicans [1] was over 1000 ng/mL; in the test with Candida albicans [6] it was 625 ng/mL (≈ 1.39 µM); in the test with Candida albicans [7], over 1000 ng/mL. Moreover, the IC50 is 1000 ng/mL in test [2], 1000 ng/mL (≈ 2.22 µM) in test [4] and 5.2 ng/mL (≈ 0.0116 µM) in test [5]. Also, the Ratio IC50 in the test with Candida albicans [3] is 192.

With `C/C=C/[C@@H]1[C@H]2C[C@@H](COC(=O)C3CC3)CC[C@@H]2C(C)=C[C@H]1C(=O)c1c(O)c(-c2ccc(O)cc2)c[nH]c1=O`, in the test on Candida albicans [8], the Ratio turned out to be 8. In addition, the figures for the MIC in the test with Candida albicans [1] and in the test with Candida albicans [6] were 250 ng/mL and 31.3 ng/mL (≈ 0.0605 µM), respectively. In addition, the results for the IC50 in test [2], in test [4] and in [5] were 40 ng/mL, 40 ng/mL (≈ 0.0773 µM) and 1.2 ng/mL (≈ 0.00232 µM), respectively. Also, the Ratio IC50 in the test with Candida albicans [3] is 20.

Regarding `C/C=C/[C@@H]1[C@H]2C[C@@H](C)CC[C@@H]2C(C)=C[C@H]1C(=O)c1c(O)c(-c2ccc(O)cc2)cn(CCN(CC)CC)c1=O`, the MIC in the test with Candida albicans [1] and in the test with Candida albicans [6] was over 1000 ng/mL in each case. Besides, the results for the IC50 in [2], in [4] and in test [5] were 5000 ng/mL, over 1000 ng/mL and 20 ng/mL (≈ 0.0375 µM), respectively. The Ratio IC50 in the test on Candida albicans [3] is 250.

For `C/C=C/[C@@H]1[C@H]2C[C@@H](C)CC[C@@H]2C(C)=C[C@H]1C(=O)c1c(O)c(-c2ccc(OC(=O)CCCCN)cc2)c[nH]c1=O`, the IC50 is 30 ng/mL in test [2], 40 ng/mL (≈ 0.0751 µM) in [4] and 0.1 ng/mL (≈ 0.000188 µM) in test [5]. For the same molecule, in the test on Candida albicans [3], the Ratio IC50 stood at 300. Moreover, the MIC with Candida albicans [6] turned out to be 31 ng/mL (≈ 0.0582 µM).

As to `C/C=C/[C@@H]1[C@H]2C[C@@H](C)CC[C@@H]2C(C)=C[C@H]1C(=O)c1c(O)c(-c2ccc(O)cc2)c[nH]c1=O` [ILICICOLIN H], the Ratio IC50 in test [9] is over 1000; with Candida albicans [3] it was 140. In the test on Candida albicans [8], the Ratio is given as over 25. Besides, the MIC in the test with Candida albicans [1] was over 1000 ng/mL; in the test with Candida albicans [6], 20 ng/mL (≈ 0.0461 µM). Moreover, the IC50 is 70 ng/mL in test [2], 2000 ng/mL (≈ 4.61 µM) in [4] and 0.5 ng/mL (≈ 0.00115 µM) in test [5].

As for `C/C=C/[C@@H]1[C@H]2C[C@@H](C)CC[C@@H]2C(C)=C[C@H]1C(=O)c1c(O)c(-c2ccc(OC(=O)/C=C/c3cnc[nH]3)cc2)c[nH]c1=O`, the Ratio in the test with Candida albicans [8] is on record as 16. The MIC in the test on Candida albicans [1] came out at 1000 ng/mL; with Candida albicans [6], 31 ng/mL (≈ 0.056 µM). In addition, the IC50 turned out to be 150 ng/mL in [2], 8 ng/mL (≈ 0.0144 µM) in test [4] and 1 ng/mL (≈ 0.00181 µM) in test [5]. The Ratio IC50 in the test with Candida albicans [3] came out at 43.

With `C=CCn1cc(-c2ccc(O)cc2)c(O)c(C(=O)[C@@H]2C=C(C)[C@H]3CC[C@H](C)C[C@@H]3[C@H]2/C=C/C)c1=O`, the IC50 in [4] was found to be 1000 ng/mL (≈ 2.11 µM); in [5], 8 ng/mL (≈ 0.0169 µM). The minimal inhibitory concentration (MIC) with Candida albicans [6] is 1000 ng/mL (≈ 2.11 µM).

For `CC1O[C@H]1[C@@H]1[C@H]2C[C@@H](C)CC[C@@H]2[C@](C)(O)[C@H]2Oc3ncc(-c4ccc(O)cc4)c(O)c3C(=O)[C@@H]12` (stereo not given in full), the IC50 in test [4] was 1000 ng/mL (≈ 2.15 µM); in test [5], over 1000 ng/mL. Also, the MIC in the test on Candida albicans [6] is over 5000 ng/mL.

As to `C/C=C/[C@@H]1[C@H]2C[C@@H](COC(C)=O)CC[C@@H]2C(C)=C[C@H]1C(=O)c1c(O)c(-c2ccc(OC(C)=O)cc2)c[nH]c1=O`, the Ratio with Candida albicans [8] is on record as 8. The MIC turned out to be 1000 ng/mL in the test with Candida albicans [1] and 62 ng/mL (≈ 0.116 µM) with Candida albicans [6]. The results for the IC50 in test [2], in test [4] and in test [5] were 100 ng/mL, over 800 ng/mL and 15 ng/mL (≈ 0.0281 µM), respectively. Also, the Ratio IC50 in the test with Candida albicans [3] was found to be 7.

For `C/C=C/[C@@H]1[C@H]2C[C@@H](C)CC[C@@H]2C(C)=C[C@H]1C(=O)c1c(O)c(-c2ccc(OC(=O)Cc3ccccc3)cc2)c[nH]c1=O`, the IC50 was found to be 1000 ng/mL (≈ 1.81 µM) in [4] and 0.5 ng/mL (≈ 0.000906 µM) in test [5]. For the same molecule, the MIC in the test on Candida albicans [6] is 250 ng/mL (≈ 0.453 µM).

On to `C/C=C/[C@@H]1[C@H]2C[C@@H](C)CC[C@@H]2C(C)=C[C@H]1C(=O)c1c(OC)ncc(-c2ccc(O)cc2)c1O`, for which the 50% inhibitory concentration (IC50) in test [4] was over 1000 ng/mL; in test [5] it was 20 ng/mL (≈ 0.0447 µM). For the same molecule, the MIC with Candida albicans [6] was over 1000 ng/mL.

Turning to `C/C=C/[C@@H]1[C@H]2C[C@@H](C)CC[C@@H]2C(C)=C[C@H]1C(=O)c1c(O)c(-c2ccc(O)cc2)cn(C)c1=O`, the concentration for half-maximal inhibition (IC50) in test [4] is 250 ng/mL (≈ 0.559 µM); in test [5], 1.6 ng/mL (≈ 0.00357 µM). Also, the minimum inhibitory concentration (MIC) with Candida albicans [6] came to 250 ng/mL (≈ 0.559 µM).

In the case of `C/C=C/[C@@H]1[C@H]2C[C@@H](C)CC[C@@H]2C(C)=C[C@H]1C(=O)c1c(O)c(-c2ccc(OCC(=O)O)cc2)cn(CC(=O)O)c1=O`, the IC50 in test [4] is 1000 ng/mL (≈ 1.82 µM); in test [5], over 1000 ng/mL. For the same molecule, the MIC in the test with Candida albicans [6] is over 5000 ng/mL.

As for `C/C=C/[C@@H]1[C@H]2C[C@@H](C)CC[C@@H]2C(C)=C[C@H]1C(=O)c1c(O)c(-c2ccc(OCC(N)=O)cc2)cn(CC(N)=O)c1=O`, the IC50 in test [4] is over 1000 ng/mL; in [5] it was 200 ng/mL (≈ 0.365 µM). The minimum inhibitory concentration (MIC) in the test on Candida albicans [6] was over 1000 ng/mL.

On to `C/C=C/[C@@H]1[C@H]2C[C@@H](C)CC[C@@H]2C(C)=C[C@H]1C(=O)c1c(O)c(-c2ccc(OC(=O)c3ccoc3)cc2)c[nH]c1=O`, for which the results for the half-maximal inhibitory concentration (IC50) in test [4] and in test [5] were over 1000 ng/mL and 10.5 ng/mL (≈ 0.0199 µM), respectively. In addition, in the test with Candida albicans [6], the MIC is 62.5 ng/mL (≈ 0.118 µM).

Consider `C/C=C/[C@@H]1[C@H]2C[C@@H](C)CC[C@@H]2C(C)=C[C@H]1C(=O)c1c(O)c(-c2ccc(OC(=O)/C=C/c3ccsc3)cc2)c[nH]c1=O`, for which the figures for the half-maximal inhibitory concentration (IC50) in [4] and in test [5] were over 1000 ng/mL and 500 ng/mL (≈ 0.878 µM), respectively. Moreover, in the test on Candida albicans [6], the MIC was found to be 1000 ng/mL (≈ 1.76 µM).

On to `C/C=C/[C@@H]1[C@H]2C[C@@H](C)CC[C@@H]2C(C)=C[C@H]1C(=O)c1c(O)c(-c2ccc(OC(=O)CCCN)cc2)c[nH]c1=O`, for which the IC50 in test [2] was found to be 30 ng/mL; in [4] it was 45 ng/mL (≈ 0.0868 µM); in test [5] it was 0.2 ng/mL (≈ 0.000386 µM). Also, the Ratio IC50 in the test with Candida albicans [3] stood at 150. The MIC in the test on Candida albicans [6] was 31 ng/mL (≈ 0.0598 µM).

As to `C/C=C/[C@@H]1[C@H]2C[C@@H](C)CC[C@@H]2[C@](C)(Br)[C@H]2Oc3ncc(-c4ccc(O)cc4)c(O)c3C(=O)[C@@H]12`, the figures for the IC50 in [4] and in [5] were 1000 ng/mL (≈ 1.95 µM) and over 1000 ng/mL, respectively. The MIC in the test on Candida albicans [6] was over 5000 ng/mL.

`C/C=C/[C@@H]1[C@H]2C[C@@H](C)CC[C@@H]2C(C)=C[C@H]1C(=O)c1c(O)c(-c2ccc(OC(=O)CCCNC(=O)OC(C)(C)C)cc2)c[nH]c1=O`: the IC50 is over 1000 ng/mL in test [4] and 4 ng/mL (≈ 0.00646 µM) in [5]. Also, the minimal inhibitory concentration (MIC) in the test with Candida albicans [6] is 125 ng/mL (≈ 0.202 µM).
